The results in this text go back to a melting point compilation (Tetko et al.; mined from patent text by program, amines drawn as free bases though some values may be those of a salt).

Usually melting point stands for the temperature of the solid-liquid transition. Regarding `CCC(CC)Nc1c(NCc2ccc(Cl)c(Cl)c2)c(=O)c1=O`, the melting point lay within 268 to 269 °C. In turn, `CC(CN(C)C)CC(CNC(=O)NCCCl)(c1ccc(F)cc1)c1ccc(F)cc1` (configuration not stated) had a melting point of 105 to 107 °C. For the compound `O=CC1(Br)C2CCC(CC2)C1c1ccccc1` (configuration not stated), the melting point was 65 to 66 °C. The compound `COc1ccc(-c2cc(=O)n(CCc3ccc(Cl)cc3)nc2-c2ccc(OC)cc2)cc1` showed a melting point of 133 to 134 °C. As for `CCC(C)(C)CNc1c(N=O)c(C)nn1C`, the figure is 45 to 50 °C; as for `O=C(c1ccccc1)N1CCN(c2c(Cl)cncc2Cl)CC1`, 132 to 134 °C; as for `CCN(CC)CCCNC(=O)Cn1ncc(-c2ccc(Cl)cc2)c1-c1ccccc1`, 104 to 105 °C.

`Cn1cc(-c2ccc(Cl)cc2)c(=S)c(-c2cccc(C(F)(F)F)c2)c1` had a melting point of 239 to 242 °C. With `COc1cc(OC)cc(N2CCN(C(=S)Nc3cc4ccccc4nc3C)CC2)c1` the figure was 211 to 212 °C; with `Cc1ccc(S(=O)(=O)Nc2ccccc2O)cc1`, 140 °C. As for `CCc1n[nH]c(=O)n1CCOc1ccccc1`, the figure is 136 to 139 °C; as for `CS(=O)(=O)c1ccc(C(O)C(CF)N=[N+]=[N-])cc1` (configuration not stated), 121 to 123 °C. `COCCc1nc2c(N)nc3ccccc3c2n1CCOCCCc1ccccc1` returned a melting point of 104 °C. `CS(=O)(=O)c1ccc(-c2oc3ccccc3c(=O)c2-c2cccc(Cl)c2)cc1` gave a melting point of 195 to 196 °C. As for `CCN1CCCC1CNC(=O)c1c(OC)c(Cl)cc(Br)c1OC` (configuration not stated), the figure is 124 to 125 °C; as for `COC(=O)c1ccccc1NC(=O)CNc1ccccc1`, 140 to 142 °C; as for `COc1cc(Nc2c(C#N)cnc3cc(C#CCCN4CCOCC4)c(OC)cc23)c(Cl)cc1Cl`, 140 to 142 °C.

Consider `CSc1c(OCC(=O)O)ccc2c1[nH]c1ccccc12`, for which the melting point was in the range of 179 to 180 °C.

In the case of `CCOc1c(C#N)sc(NC(C)=O)c1C#N`, the melting point fell in the range of 267 to 268 °C.

In turn, `CC(C)(C)OC(=O)CC(Cc1ccccc1)NC(=O)C1Cc2ccccc2N1S(=O)(=O)c1ccc(-c2cccc(C(F)(F)F)c2)cc1` (configuration not stated) showed a melting point of 50 °C.

`O=C(O)C1=Cc2c(F)ccc(Br)c2OC1C(F)(F)F` (configuration not stated) came in with a melting point of 222 to 223 °C. As for `CS(=O)c1ccccc1-c1nc2ncccc2o1` (configuration not stated), the figure is 154 to 156 °C; as for `Cc1ccccc1-c1c(C(C)n2cnc3c(N)ncnc32)oc2ccccc2c1=O` (configuration not stated), 202 to 205 °C. With `Clc1cc2c(nc1-c1ccccc1Br)OCC2` the figure was 106 to 117 °C. Compound `O=C(O)CCc1cn(Cc2ccc(OCc3ccc4ccccc4n3)cc2)nc1-c1ccccc1` displayed a melting point of 147 to 148 °C. With `CCOC(=O)C(=O)Nc1cnccn1`, the melting point fell in the range of 134 to 137 °C. Compound `CS(=O)(=O)c1ccc(-c2ccccc2N)cc1` yielded a melting point of 164 to 165 °C.

Regarding `CCCCCCCCCCC(=O)NCc1cccc2c1C(=O)N(C1CCC(=O)NC1=O)C2=O` (configuration not stated), the melting point fell in the range of 138 to 139 °C. With `CCCCNC(=O)NC(=N)c1ccccc1` the figure was 139 to 141 °C.

Turning to `CC(=O)N(C)C1CCc2c([nH]c3ccccc23)C1` (configuration not stated), the melting point is 215 to 216 °C. As for `O=C(c1ccc(Cl)c([N+](=O)[O-])c1)c1ccccn1`, the figure is 98 to 99 °C; as for `CC(C)(C)OC(=O)NCc1cccc(C(=O)OCC#N)c1O`, 144 to 146 °C. `CCC(=O)NCC(CCO)c1cccc2ccc(OC)cc12` (configuration not stated) returned a melting point of 123 to 125 °C. As for `COc1cccc(CC(=O)O)c1OCCCc1cn(-c2ccc(C(F)(F)F)cn2)nc1C1CCCCC1`, the figure is 140 to 141 °C. Consider `COC(=O)C(C)(C)OCc1cc2nc(C(F)(F)F)ccc2n1S(=O)(=O)c1ccc2ncsc2c1`, for which the melting point lay within 124 to 127 °C. Compound `COC(=O)CCC(=O)c1ccc(-c2ccc(F)cc2)cc1` yielded a melting point of 132 to 133 °C. The compound `O=C(NCc1ccc(Cl)cc1)c1cn(N2CCCCC2)c2ccc(CN3CCOCC3)cc2c1=O` gave a melting point of 161 to 164 °C. `O=C(O)Cc1coc2cc(OCc3cc(-c4ccc(C(F)(F)F)cc4)on3)ccc12` had a melting point of 201 °C.

Compound `COC(=O)c1ccc(Cn2c(C(=O)NC(N)=S)cc3cc(C)cc(C)c32)cc1` registered a melting point of 222 to 224 °C. As for `NC(=O)c1ccc(OCCn2ccnc2)cc1`, the figure is 148 to 149 °C. The compound `COC(=O)C1=C(C)NC(C(C)=O)=C(C(=O)OC)C1c1ccccc1Cl` (configuration not stated) returned a melting point of 161 to 162 °C. With `CCCN(CCC)C(=O)Cc1ccccc1Nc1c(Cl)cccc1Cl`, the melting point fell in the range of 84 to 86 °C. As for `COc1cc(Nc2c(C#N)cnc3cc(-c4cccc([N+](=O)[O-])c4)ccc23)c(Cl)cc1Cl`, the figure is 287 to 288 °C; as for `O=C(Oc1cc(OC(=O)c2ccccc2)c(C(=O)C=Cc2ccc(O)cc2)c(OC(=O)c2ccccc2)c1)c1ccccc1`, 198 to 200 °C; as for `S=C(NCCC1=CCCCC1)Nc1nc2ccccc2[nH]1`, 178 to 180 °C. As for `N#Cc1ccc(N(Cc2ccc(OS(N)(=O)=O)c(Cl)c2)n2cnnc2)cc1-c1ccoc1`, the figure is 154 to 155 °C; as for `CCCCCCCCCC[C@H](CC(=O)OC(C)(C)C)C(=O)N1C(=O)OC[C@@H]1C(C)C`, 42 to 43 °C; as for `O=S(=O)(Nc1cccc(Nc2nc(NC3CCCC3)c3nc[nH]c3n2)c1)C(F)(F)F`, 243 to 246 °C. As for `O=c1[nH]c2cccc(Cl)c2s1`, the figure is 202 to 203 °C; as for `NC(N)=NC(=O)Cc1c(-c2ccccc2Cl)csc1-c1ccc(Oc2ccccc2)cc1`, 76 to 78 °C. The compound `CNc1cc(OC)c(-c2nc(C)c(-c3cccnc3)[nH]2)cc1Cl` returned a melting point of 205 to 206 °C.

`O=C(O)C(CCCc1cccc2ccccc12)c1ccccc1` (configuration not stated) displayed a melting point of 99 to 100 °C. Compound `O=C(NCc1cccc(-c2ccc(CS(=O)(=O)Cc3n[nH]c(=O)[nH]3)cc2)c1)c1nc2ccccc2c(=O)[nH]1` came in with a melting point of 245 to 247 °C. As for `COc1cc2c(cc1OC)CN(c1c(C)c(C)c3c(c1C)C(c1ccc(C)cc1)C(C)(C)O3)C2` (configuration not stated), the figure is 156 to 159 °C.

As to `CCOc1ccc(C(=O)N2c3ccccc3C(N3CCCc4ccccc43)CC2C)cc1OCC` (configuration not stated), the melting point lay in the range of 157 to 158 °C.

`O=C1NNC2=CC(=O)N(c3ccccc3)c3cc(Cl)ccc3N12` yielded a melting point of 110 to 112 °C.

In turn, `C=CCc1cc2c(c(CC=C)c1O)CCC(=O)N2CC=C(C)C` came in with a melting point of 133 to 135 °C. With `O=c1[nH]nc(OCC2c3ccccc3-c3ccccc32)o1` the figure was 125 °C.

For `O=C(O)COc1cccc2c1CCc1sc(Sc3ccc([N+](=O)[O-])cc3[N+](=O)[O-])nc1-2`, the melting point is 223 to 226 °C.

As for `Cc1cc(C(N)=O)ncc1C(c1c(F)ccc(F)c1F)S(=O)(=O)c1ccc(OC(F)(F)F)cc1` (configuration not stated), the melting point lay in the range of 219 to 220 °C. In the case of `OCCN1CCN(c2onc3c2CCc2ccccc2-3)CC1`, the melting point lay within 137 to 138 °C. As for `CC(Oc1ccccc1)C(=O)NCCCCn1cnc2c(N)nc3ccccc3c21` (configuration not stated), the figure is 85 to 87.5 °C.
